Read-outs that look alike come from different tables or passages of the source.
Test system: HCT116 MTAP-deleted cell lines
Experiment: Cell viability assay (CellTiter-Glo, 7 days), HCT116 MTAP-deleted
Assay type: cell-based
Settings: Homo sapiens, HCT-116, HCT116 MTAP-deleted, class symbols, read-out: CC50
Description: Control compounds were analyzed in parallel each time for quality control. In Brief, on Day -1, a serial dilution of stock compounds in DMSO was performed using BioMek liquid handlers and dispensed using Echo acoustic dispenser into 384 well plates. Both tool compounds and sample compounds were spotted in the same plate for a dose response of PRMT5 inhibitors. Compound plates were stored as frozen until the cells were ready for seeding. […] After equilibrating the plate in room temperature, the cells were incubated for 7 days inside the sealed incubator set at 37° C. with 90% humidity and 5% CO2. On Day 7, the viability of cells was measured using a CTG assay kit (CellTitre-Glo;Promega cat no. G7573). Shortly, 40 μl per well of luminescent cell viability assay reagent were dispensed using EL460 liquid dispenser 5 μl cassette. CTG luminescence signal was measured using an EnVision plate reader (PerkinElmer) in accordance with manufacturer's instruction. […] Selectivity with * is artificially high due to limited solubility of the compound hampering accurate measurement of WT CC50.

| SMILES | CC50 (cell viability) | CC50 (cell viability assay) |
| --- | --- | --- |
| Nc1nc2cc(F)c(C(=O)N3C[C@@H](F)C[C@@H]4Oc5cc(C(F)(F)F)ccc5[C@@H]43)cc2n2cncc12 [Ff-120, (4-amino-7-fluoroimidazo[1,5-a]quinoxalin-8-yl)((3S,4aS,9bS)-3-fluoro-7-(trifluoromethyl)-3,4,4a,9b-tetrahydrobenzofuro[3,2-b]pyridin-1(2H)-yl)methanone] | < 100 nM | – |
| Cc1ncc2c(N)nc3cnc(C(=O)N4CCC[C@@H]5Oc6cc(OC(F)(F)F)c(F)cc6[C@@H]54)cc3n12 [Ff-376, (4-amino-1-methylimidazo[1,5-a]pyrido[3,4-e]pyrazin-8-yl)((4aS,9bS)-8-fluoro-7-(trifluoromethoxy)-3,4,4a,9b-tetrahydrobenzofuro[3,2-b]pyridin-1(2H)-yl)methanone] | – | < 100 nM |
| Nc1nc2cc(F)c(C(=O)N3CCC[C@H]4Oc5cc(OC(F)(F)F)c(F)cc5[C@H]43)cc2n2cncc12 (single isomer, unassigned) [Ff-397] | – | 100 to 1000 nM |
| Nc1nc2cc(F)c(C(=O)N3CCC[C@@H]4OCc5cc(-c6ccn(C(F)(F)F)n6)ccc5[C@@H]43)cc2n2cncc12 (racemic) [Ff-294, Rac-(4-amino-7-fluoroimidazo[1,5-a]quinoxalin-8-yl)((4aS,10bS)-8-(1-(trifluoromethyl)-1H-pyrazol-3-yl)-2,3,4,4a,6,10b-hexahydro-1H-isochromeno[4,3-b]pyridin-1-yl)methanone] | < 100 nM | – |
| CN(C(=O)c1cc2c(cc1F)nc(N)c1cncn12)[C@@H]1COc2cc([C@@H]3C[C@H]3C#N)ccc21 (single isomer, unassigned) [Ff-480] | – | < 100 nM |
| CN(C(=O)c1cc2c(cc1F)nc(N)c1cncn12)[C@@H]1COc2cc(C#CC(C)(C)F)ccc21 [Ff-447, 4-amino-7-fluoro-N-[(3S)-6-(3-fluoro-3-methyl-but-1-ynyl)-2,3-dihydrobenzofuran-3-yl]-N-methyl-imidazo[1,5-a]quinoxaline-8-carboxamide] | – | < 100 nM |
| Nc1nc2cc(F)c(C(=O)N3CCCCC4Oc5cc(C(F)(F)F)ccc5C43)cc2n2cncc12 (stereo not shown) [Ff-432, (4-amino-7-fluoro-imidazo[1,5-a]quinoxalin-8-yl)-[8-(trifluoromethyl)-2,3,4,5,5a,10b-hexahydrobenzofuro[3,2-b]azepin-1-yl]methanone] | – | < 100 nM |
| CO[C@@H]1COCC[C@H]1N(Cc1ccc(C(F)(F)F)cc1F)C(=O)c1cc2c(cc1F)nc(N)c1cncn12 [Ff-273, 4-amino-7-fluoro-N-(2-fluoro-4-(trifluoromethyl)benzyl)-N-((3S,4R)-3-methoxytetrahydro-2H-pyran-4-yl)imidazo[1,5-a]quinoxaline-8-carboxamide] | < 100 nM | – |
| CN(C(=O)c1ccc2nc(N)c3cncn3c2c1)[C@@H](c1ccc(C(F)(F)F)cc1F)C(F)F [Fb-14, (S)-4-amino-N-(2,2-difluoro-1-(2-fluoro-4-(trifluoromethyl)phenyl)ethyl)-N-methylimidazo[1,5-a]quinoxaline-8-carboxamide] | < 100 nM | – |
| CN(C(=O)c1cc2c(cc1F)nc(N)c1cncn12)[C@@H]1COc2cc(C3CCOC3)ccc21 (mixture of isomers) [Ff-484, Rac-4-amino-7-fluoro-N-methyl-N-((3S)-6-(tetrahydrofuran-3-yl)-2,3-dihydrobenzofuran-3-yl)imidazo[1,5-a]quinoxaline-8-carboxamide] | – | < 100 nM |
| CN(C(=O)c1cc2c(cc1F)nc(N)c1cncn12)[C@@H]1COc2cc(-c3cnn(C)c3)ccc21 [Ff-214, (S)-4-amino-7-fluoro-N-methyl-N-(6-(1-methyl-1H-pyrazol-4-yl)-2,3-dihydrobenzofuran-3-yl)imidazo[1,5-a]quinoxaline-8-carboxamide] | < 100 nM | – |
| Nc1nc2cc(F)c(C(=O)N3CCO[C@@H]4Cc5cc(OC(F)(F)F)ccc5[C@@H]43)cc2n2cncc12 [Ff-181, (4-amino-7-fluoroimidazo[1,5-a]quinoxalin-8-yl)((4aS,9aR)-7-(trifluoromethoxy)-2,3,9,9a-tetrahydroindeno[2,1-b][1,4]oxazin-4(4aH)-yl)methanone] | < 100 nM | – |
| CC(C)N(Cc1ccc(-c2cnn(-c3ccccn3)c2)cc1F)C(=O)c1cc2c(cc1F)nc(N)c1cncn12 [Ff-147, 4-amino-7-fluoro-N-(2-fluoro-4-(1-(pyridin-2-yl)-1H-pyrazol-4-yl)benzyl)-N-isopropylimidazo[1,5-a]quinoxaline-8-carboxamide] | < 100 nM | – |
| CN(C(=O)c1cc2c(cc1F)nc(N)c1cncn12)[C@@H]1COc2cc(C3CCOC3(C)C)ccc21 (stereo partly drawn) [Ff-486, 4-amino-N-((3S)-6-(2,2-dimethyltetrahydrofuran-3-yl)-2,3-dihydrobenzofuran-3-yl)-7-fluoro-N-methylimidazo[1,5-a]quinoxaline-8-carboxamide] | – | < 100 nM |
| Cc1ncn2c1c(N)nc1cnc(C(=O)N3CC4(CC4)C[C@@H]4Oc5cc(C(F)(F)F)ccc5[C@@H]43)cc12 [Fg-36, (4-amino-3-methylimidazo[1,5-a]pyrido[3,4-e]pyrazin-8-yl)((4aS,9bS)-7-(trifluoromethyl)-4a,9b-dihydro-2H-spiro[benzofuro[3,2-b]pyridine-3,1′-cyclopropan]-1(4H)-yl)methanone] | – | < 100 nM |
| Nc1nc2cc(F)c(C(=O)N(Cc3ccc(-c4cnn(C(F)(F)F)c4)cn3)C34CC(C3)C4)cc2n2cncc12 [Ff-211, 4-amino-N-(bicyclo[1.1.1]pentan-1-yl)-7-fluoro-N-((5-(1-(trifluoromethyl)-1H-pyrazol-4-yl)pyridin-2-yl)methyl)imidazo[1,5-a]quinoxaline-8-carboxamide] | < 100 nM | – |
| Nc1nc2cnc(C(=O)N3CCC[C@@H]4Oc5cc(Cl)ccc5[C@@H]43)cc2n2cncc12 [Fg-28, (4-aminoimidazo[1,5-a]pyrido[3,4-e]pyrazin-8-yl)((4aS,9bS)-7-chloro-3,4,4a,9b-tetrahydrobenzofuro[3,2-b]pyridin-1(2H)-yl)methanone] | – | < 100 nM |
| C[C@H]1CN(C(=O)c2cc3c(cc2F)nc(N)c2cncn23)[C@H]2c3cc(F)c(OC(F)(F)F)cc3C[C@H]2O1 (single isomer, unassigned) [Ff-198] | < 100 nM | – |
| CN(C(=O)c1cc2c(cc1F)nc(N)c1cncn12)[C@@H]1COCc2cc(C#CC3(C)COC3)ccc21 [Ff-530, (S)-4-amino-7-fluoro-N-methyl-N-(7-((3-methyloxetan-3-yl)ethynyl)isochroman-4-yl)imidazo[1,5-a]quinoxaline-8-carboxamide] | – | < 100 nM |
| Cc1ncn2c1c(N)nc1cnc(C(=O)N3CCC[C@@H]4Oc5cc(-c6cnn(C(F)(F)F)c6)ccc5[C@@H]43)cc12 [Ff-683, (4-amino-3-methylimidazo[1,5-a]pyrido[3,4-e]pyrazin-8-yl)((4aS,9bS)-7-(1-(trifluoromethyl)-1H-pyrazol-4-yl)-3,4,4a,9b-tetrahydrobenzofuro[3,2-b]pyridin-1(2H)-yl)methanone] | – | < 100 nM |
| CN(C(=O)c1cc2c(cc1F)nc(N)c1cncn12)[C@@H]1COc2cc(C3(C)CC3(F)F)ccc21 (stereo partly drawn) [Ff-575, 4-amino-N-((3S)-6-(2,2-difluoro-1-methylcyclopropyl)-2,3-dihydrobenzofuran-3-yl)-7-fluoro-N-methylimidazo[1,5-a]quinoxaline-8-carboxamide] | – | < 100 nM |
| C[C@H]1CN(C(=O)c2cc3c(cc2F)nc(N)c2cncn23)[C@H]2c3ccc(C(F)F)c(F)c3C[C@H]2O1 (single isomer, unassigned) [Ff-171] | < 100 nM | – |
| Nc1nc2ccc(C(=O)N3CCC[C@@H]4Oc5cc(OC(F)(F)F)c(F)cc5[C@@H]43)cc2n2cncc12 (racemic) [Ff-339, Rac-(4-aminoimidazo[1,5-a]quinoxalin-8-yl)((4aS,9bS)-8-fluoro-7-(trifluoromethoxy)-3,4,4a,9b-tetrahydrobenzofuro[3,2-b]pyridin-1(2H)-yl)methanone] | < 100 nM | – |
| CN(C(=O)c1cc2c(cc1F)nc(N)c1cncn12)[C@@H]1CCc2nc(C(F)(F)F)ccc21 [Ff-318, (R)-4-amino-7-fluoro-N-methyl-N-(2-(trifluoromethyl)-6,7-dihydro-5H-cyclopenta[b]pyridin-5-yl)imidazo[1,5-a]quinoxaline-8-carboxamide] | < 100 nM | – |
| CN(C(=O)c1cc2c(cc1F)nc(N)c1cncn12)[C@@H]1COc2ccc(Br)cc21 [Ff-457, (S)-4-amino-N-(5-bromo-2,3-dihydrobenzofuran-3-yl)-7-fluoro-N-methylimidazo[1,5-a]quinoxaline-8-carboxamide] | – | < 100 nM |
| Cc1ncn2c1c(N)nc1cc(Cl)c(C(=O)N3CCC[C@@H]4Oc5nc(C(F)(F)F)ccc5[C@@H]43)cc12 (racemic) [Fg-29, Rac-(4-amino-7-chloro-3-methylimidazo[1,5-a]quinoxalin-8-yl)((4aS,9bS)-7-(trifluoromethyl)-3,4,4a,9b-tetrahydrofuro[2,3-b:4,5-b′]dipyridin-1(2H)-yl)methanone] | – | < 100 nM |
| Nc1nc2cc(F)c(C(=O)N3CCC[C@@H]4OCc5cc(OC(F)F)ccc5[C@@H]43)cc2n2cncc12 (racemic) [Ff-287, Rac-(4-amino-7-fluoroimidazo[1,5-a]quinoxalin-8-yl)((4aS,10bS)-8-(difluoromethoxy)-2,3,4,4a,6,10b-hexahydro-1H-isochromeno[4,3-b]pyridin-1-yl)methanone] | < 100 nM | – |
| C[C@H]1CN(C(=O)c2ccc3nc(N)c4cncn4c3c2)[C@H]2c3ccc(C(F)(F)F)cc3C[C@H]2O1 [Ff-89, (4-aminoimidazo[1,5-a]quinoxalin-8-yl)((2S,4aS,9aR)-2-methyl-7-(trifluoromethyl)-2,3,9,9a-tetrahydroindeno[2,1-b][1,4]oxazin-4(4aH)-yl)methanone] | < 100 nM | – |
